{"source": "patent US20250034264A1", "about": "“REGULATING T CELL IMMUNE RESPONSE THROUGH IGF-I RECEPTOR (IGF-1R)” (The Regents of the University of Michigan, priority 2021, published 2025)", "format_in_all_cases": "cell-based, human", "key": {"GD-OF [1]": {"system": "GD-OF", "assay": "IL-23p19 and IL-12p35 mRNA expression, real-time PCR", "protocol": "FIGS. 10A-10F are graphs showing the divergent effect of teprotumumab on bTSH induced IL-23p19 and IL-12p35 expression on fibrocytes and GD-OF. Rinsed fibrocyte and GD-OF monolayers were incubated with or without 50 μg/ml teprotumumab (FIGS. 10A and 10B) or 1 μM linsitinib (FIGS. 10C and 10D) and human Isotype IgG for 7-9 d, and bTSH (5 mIU/mL) was added for 6 h. Harvested RNA was reverse transcribed and isolated cDNA was subjected to quantitative real-time PCR for IL-23p19 and IL-12p35 mRNA levels. Values were normalized to their respective GAPDH levels and are expressed as the mean±SD of three independent determinations. Experiments were repeated three times. FIGS. 10E and 10F are graphs showing the levels of IL-23 protein when rinsed fibrocyte and GD-OF monolayers were incubated with or without 50 μg/ml teprotumumab. **, p<0.01; ***. P<0.001.\nFIGS. 15A-15C are dose-response curves of teprotumumab effects on IL-6 expression/induction by bTSH (FIG. 15A); HAS2 expression/induction by bTSH (FIG. 15B); IL-12p35 expression/induction by bTSH (FIG. 15C). Following indicated treatments, cellular RNA was harvest from rinsed GD-OF cell layers, reversed transcribed and subjected to real-time PCR. Values were normalized to their respective GAPDH levels.\nGraves' disease-orbital fibroblast (GD-OF) preparation and cultivtion GD-OF were isolated from orbital adipose/connective tissues removed during surgical orbital decompression surgery, as described ((Smith, T. J., et al., (2002) The Journal of clinical endocrinology and metabolism 87, 385-392). While the fraction of CD34^+ OF comprising GD-OF strains vary somewhat, the ratios of CD34^+/CD34^− OF are usually 50:50 in the early passages utilized in these studies (passages 2-11). Pure CD34^+ OF and CD34^− OF subsets were generated by staining for 30 m at 4° C. with fluorescein isothiocyanate-conjugated […] CD34 or its isotype control followed by cytometric cell sorting using a FACSAria III (BD Biosciences) instrument. Cells were sorted under sterile conditions into either CD34^+ OF, and CD34 OF subsets which were then re-cultured and treated without or with bTSH (5 mU/mL) or the other test compounds, as indicated, for 6 hrs, as indicated.\nReal-time PCR Confluent fibrocyte and GD-OF cultures were incubated with bTSH (5 mIU/mL), teprotumumab (50 μg/mL) or linsitinib (1 μM) for the time intervals indicated, washed with PBS and RNA was extracted with the Aurum Total RNA Mini Kit (cat. #732-6820, Bio-Rad, Hercules, CA). Cellular RNA (2 μg) was reverse transcribed using QuantiTect Reverse Transcription kit (cat. #205314, Qiagen (Germantown, MD) and real-time PCR was performed using an Applied Biosystems instrument with QuantiTect SYBR Green PCR kit (cat. no. 204143; Qiagen, Frederick, MD). Primer sequences were as follows."}, "GD-OF [2]": {"system": "GD-OF", "assay": "Hyaluronan (HA) production, ELISA", "conditions": "50 μg/ml, over 96 h", "protocol": "(§1) FIGS. 13A-13B are graphs showing the effect of teprotumumab on bTSH induced hyaluronan (HA) production in GD-OF (FIG. 13A) and fibrocytes (FIG. 13B). GD-OF were treated with or without teprotumumab (50 μg/ml) or human Isotype IgG (5 μg/ml) for 7-9 d and stimulated with bTSH (5 mIU/mL) for graded intervals indicated along the abscissa for 0 to 96h. Media were collected and subjected to HA ELISA. Values were normalized to respective cell layer protein levels and expressed as the mean±SD of three independent determinations. Experiments were repeated three times. FIGS. 13C-13F are graphs showing the divergent pattern of hyaluronan synthase (HAS) isoenzyme induction by bTSH in fibrocytes versus GD-OF and effects of teprotumumab (FIGS. 13C and 13D) and linsitinib (FIGS. 13E and 13F). Confluent monolayers of GD-OF and fibrocytes remained untreated or received teprotumumab (50 μg/ml) or linsitinib (1 μM) and human Isotype IgG for 7-9 d. Some cultures were treated with bTSH (5 mIU/mL) for 6h. Cellular RNA was harvested mRNA was reverse transcribed, and cDNA subjected to quantitative real-time PCR for HAS1 and HAS2. Values were normalized to their respective GAPDH levels and are expressed as the mean±SD of three independent determinations. Experiments were repeated three times. *, P<0.05; **, p<0.01; ***. P<0.001.\n(§2) IL-12, IL-23, IL-10, HA and BAFF ELISAs. […]"}, "fibrocytes": {"system": "fibrocytes", "assay": "Hyaluronan (HA) production, ELISA", "conditions": "50 μg/ml", "protocol": "as §1, §2"}, "[3]": {"conditions": "teprotumumab 50 μg/ml or linsitinib 1 μM, 7-9 d"}}, "data": [{"substance": "teprotumumab", "values": [{"measurement": "dose dependence of effects (FIG. 15: IL-6, HAS2, IL-12p35 expression/induction by bTSH)", "setting": "GD-OF [1]; dose-response curves, GD-OF", "result": "dose-dependent"}, {"measurement": "IL-12p35 expression, basal and induction by bTSH", "setting": "GD-OF [1]; [3]", "result": "enhances"}, {"measurement": "IL-23p19 expression, basal and induction by bTSH", "setting": "GD-OF [1]; [3]", "result": "inhibited"}, {"measurement": "effects of bTSH on HA synthesis", "setting": "GD-OF [2]", "result": "enhanced"}, {"measurement": "HA synthesis, bTSH with teprotumumab", "setting": "fibrocytes", "result": "synergism"}]}]}
